Biological target: hENPP2 (Homo sapiens, UniProt Q13822)
Assay: Human ENPP2 (hENPP2) biochemical assay using LPC as substrate
Conditions: 150 µM LPC (palmitoyl 16:0), 37°C for 30 min
In short: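 IC50 came from compound series (top 50 µM, 1/3 steps) incubated 30 min at 37°C with 1 or 3 µg/mL final enzyme and palmitoyl LPC added at 150 µM, pH 8.5 Tris buffer with Ca2+. Choline output measured as quinoneimine dye at 555 nm via coupled oxidase/HRP/TOOS detection.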

Row | SMILES | IC50
1 | Cc1cc(C)cc(Nc2ncc3c(n2)CN(C2CC4CC2CN4C(=O)c2ccc4[nH]nnc4c2)C3)c1 (centres unmarked) [compound 63, 1H-benzotriazol-5-yl-[5-[2-(3,5-dimethylanilino)-5,7-dihydropyrrolo[3,4-d]pyrimidin-6-yl]-2-azabicyclo[2.2.1]heptan-2-yl]methanone] | > 1000 nM
2 | Cc1cc(C)cc(Nc2ncc3c(n2)CN(C2CC4CC2CN4C(=O)c2ccc4[nH]c(=O)oc4c2)C3)c1 (centres unmarked) [compound 64, 6-[5-[2-(3,5-dimethylanilino)-5,7-dihydropyrrolo[3,4-d]pyrimidin-6-yl]-2-azabicyclo[2.2.1]heptane-2-carbonyl]-3H-1,3-benzoxazol-2-one] | > 1000 nM
3 | Cc1cc(C)cc(Nc2ncc3c(n2)CN(C2CCN(C(=O)c4cnc5[nH]nnc5c4)CC2C)C3)c1 (centres unmarked) [compound 65, [4-[2-(3,5-dimethylanilino)-5,7-dihydropyrrolo[3,4-d]pyrimidin-6-yl]-3-methyl-1-piperidyl]-(3H-triazolo[4,5-b]pyridin-6-yl)methanone] | 100 to 500 nM
4 | Cc1cc(C)cc(Nc2ncc3c(n2)CN(C2CC(C)N(C(=O)c4ccc5[nH]nnc5c4)C(C)C2)C3)c1 (centres unmarked) [compound 68, 1H-benzotriazol-5-yl-[4-[2-(3,5-dimethylanilino)-5,7-dihydropyrrolo[3,4-d]pyrimidin-6-yl]-2,6-dimethyl-1-piperidyl]methanone] | > 1000 nM
5 | Cc1cc(C)cc(Nc2ncc3c(n2)CN(C2CCN(C(=O)c4ccc5[nH]c(=O)sc5c4)CC2)C3)c1 [compound 69, 6-[4-[2-(3,5-dimethylanilino)-5,7-dihydropyrrolo[3,4-d]pyrimidin-6-yl]piperidine-1-carbonyl]-3H-1,3-benzothiazol-2-one] | 0.01 to 100 nM
6 | Cc1cc(C)cc(Nc2ncc3c(n2)CN(C2CN(C(=O)c4ccc5[nH]c(=O)sc5c4)C2)C3)c1 [compound 70, 6-[3-[2-(3,5-dimethylanilino)-5,7-dihydropyrrolo[3,4-d]pyrimidin-6-yl]azetidine-1-carbonyl]-3H-1,3-benzothiazol-2-one] | 0.01 to 100 nM
7 | Cc1cc(C)cc(Nc2ncc3c(n2)CN(C2CCN(C(=O)c4ccc(NS(C)(=O)=O)cc4)CC2)C3)c1 [compound 72, N-[4-[4-[2-(3,5-dimethylanilino)-5,7-dihydropyrrolo[3,4-d]pyrimidin-6-yl]piperidine-1-carbonyl]phenyl]methanesulfonamide] | > 1000 nM
8 | Cc1cc(C)cc(Nc2ncc3c(n2)CN([C@@H]2CCN(C(=O)c4ccc5[nH]nnc5c4)[C@H](C)C2)C3)c1 [compound 73, 1H-benzotriazol-5-yl-[(2R,4R)-4-[2-(3,5-dimethylanilino)-5,7-dihydropyrrolo[3,4-d]pyrimidin-6-yl]-2-methyl-1-piperidyl]methanone] | 0.01 to 100 nM
9 | Cc1cc(C)cc(Nc2ncc3c(n2)CN([C@H]2CCN(C(=O)c4ccc5[nH]nnc5c4)[C@@H](C)C2)C3)c1 [compound 74, 1H-benzotriazol-5-yl-[(2S,4S)-4-[2-(3,5-dimethylanilino)-5,7-dihydropyrrolo[3,4-d]pyrimidin-6-yl]-2-methyl-1-piperidyl]methanone] | 0.01 to 100 nM
10 | Cc1cc(C)cc(Nc2ncc3c(n2)CCCN(C2CCN(C(=O)c4ccc5nn[nH]c5c4)CC2)C3)c1 [compound 75, 3H-benzotriazol-5-yl-[4-[2-(3,5-dimethylanilino)-5,7,8,9-tetrahydropyrimido[5,4-c]azepin-6-yl]-1-piperidyl]methanone] | > 1000 nM
11 | Cc1cc(C)cc(Nc2ncc3c(n2)CN(C2CN(C(=O)c4ccc5nn[nH]c5c4)CC2C)C3)c1 (centres unmarked) [compound 77, 3H-benzotriazol-5-yl-[3-[2-(3,5-dimethylanilino)-5,7-dihydropyrrolo[3,4-d]pyrimidin-6-yl]-4-methyl-pyrrolidin-1-yl]methanone] | 100 to 500 nM
12 | Cc1cc(C)cc(Nc2ncc3c(n2)CN(C2[C@@H]4C[C@H]2CN(C(=O)c2ccc5[nH]nnc5c2)C4)C3)c1 (stereo partly drawn) [compound 78, 1H-benzotriazol-5-yl-[(1R,5S)-6-[2-(3,5-dimethylanilino)-5,7-dihydropyrrolo[3,4-d]pyrimidin-6-yl]-3-azabicyclo[3.1.1]heptan-3-yl]methanone] | 0.01 to 100 nM
13 | Cc1cc(C)cc(Nc2ncc3c(n2)CN(C2CCN(C(=O)c4cc5[nH]nnc5cc4F)CC2)C3)c1 [compound 79, [4-[2-(3,5-dimethylanilino)-5,7-dihydropyrrolo[3,4-d]pyrimidin-6-yl]-1-piperidyl]-(6-fluoro-3H-benzotriazol-5-yl)methanone] | 0.01 to 100 nM
14 | Cc1cc(C)cc(Nc2ncc3c(n2)CN(C2CN(C(=O)c4cc5[nH]nnc5cc4F)C2)C3)c1 [compound 80, [3-[2-(3,5-dimethylanilino)-5,7-dihydropyrrolo[3,4-d]pyrimidin-6-yl]azetidin-1-yl]-(6-fluoro-3H-benzotriazol-5-yl)methanone] | 0.01 to 100 nM
15 | COc1cc2[nH]nnc2cc1C(=O)N1CC(N2Cc3cnc(Nc4cc(C)cc(C)c4)nc3C2)C1 [compound 81, [3-[2-(3,5-dimethylanilino)-5,7-dihydropyrrolo[3,4-d]pyrimidin-6-yl]azetidin-1-yl]-(6-methoxy-1H-benzotriazol-5-yl)methanone] | 0.01 to 100 nM
16 | Cc1cc(C)cc(Nc2ncc3c(n2)CN(C2CN(C(=O)c4cc5nn[nH]c5cc4F)CC2C)C3)c1 (centres unmarked) [compound 82, [3-[2-(3,5-dimethylanilino)-5,7-dihydropyrrolo[3,4-d]pyrimidin-6-yl]-4-methyl-pyrrolidin-1-yl]-(6-fluoro-1H-benzotriazol-5-yl)methanone] | 100 to 500 nM
17 | COc1cc2[nH]nnc2cc1C(=O)N1CC(C)C(N2Cc3cnc(Nc4cc(C)cc(C)c4)nc3C2)C1 (centres unmarked) [compound 83, [3-[2-(3,5-dimethylanilino)-5,7-dihydropyrrolo[3,4-d]pyrimidin-6-yl] -4-methyl-pyrrolidin-1-yl]-(6-methoxy-1H-benzotriazol-5-yl)methanone] | 100 to 500 nM
18 | Cc1cc(C)cc(Nc2ncc3c(n2)CN(C2=C(C#N)CN(C(=O)c4ccc5nn[nH]c5c4)C2)C3)c1 [compound 85, 1-(3H-benzotriazole-5-carbonyl)-4-[2-(3,5-dimethylanilino)-5,7-dihydropyrrolo[3,4-d]pyrimidin-6-yl]-2,5-dihydropyrrole-3-carbonitrile] | 100 to 500 nM
19 | Cc1cc(C)cc(Nc2ncc3c(n2)CCN(C2CN(C(=O)c4ccc5nn[nH]c5c4)CC2C)C3)c1 (centres unmarked) [compound 87, 3H -benzotriazol-5-yl-[3-[2-(3,5-dimethylanilino)-7,8-dihydro-5H-pyrido[4,3-d]pyrimidin-6-yl] -4-methyl-pyrrolidin-1-yl]methanone] | 0.01 to 100 nM
20 | COc1cc2[nH]nnc2cc1C(=O)N1CC(C)C(N2CCc3nc(Nc4cc(C)cc(C)c4)ncc3C2)C1 (centres unmarked) [compound 88, [3-[2-(3,5-dimethylanilino)-7,8-dihydro-5H-pyrido[4,3-d]pyrimidin-6-yl]-4-methyl-pyrrolidin-1-yl]-(6-methoxy-1H-benzotriazol-5-yl)methanone] | 0.01 to 100 nM
21 | Cc1cc(C)cc(Nc2ncc3c(n2)CN([C@H]2CCN(C(=O)c4ccc5[nH]nnc5c4)[C@H](C)C2)C3)c1 [compound 92, 1H-benzotriazol-5-yl-[(2R,4S)-4-[2-(3,5-dimethylanilino)-5,7-dihydropyrrolo[3,4-d]pyrimidin-6-yl]-2-methyl-1-piperidyl]methanone] | 0.01 to 100 nM
22 | Cc1cc(C)cc(Nc2ncc3c(n2)CN([C@@H]2CCN(C(=O)c4ccc5[nH]nnc5c4)[C@@H](C)C2)C3)c1 [compound 93, 1H-benzotriazol-5-yl-[(2S,4R)-4-[2-(3,5-dimethylanilino)-5,7-dihydropyrrolo[3,4-d]pyrimidin-6-yl]-2-methyl-1-piperidyl]methanone] | 0.01 to 100 nM
23 | Cc1cc(C)cc(Nc2ncc3c(n2)CCCN(C2CN(C(=O)c4ccc5[nH]nnc5c4)C2)C3)c1 [compound 94, 1H-benzotriazol-5-yl-[3-[2-(3,5-dimethylanilino)-5,7,8,9-tetrahydropyrimido[5,4-c]azepin-6-yl]azetidin-1-yl]methanone] | > 1000 nM
24 | Cc1cc(C)cc(Nc2ncc3c(n2)C(C)(C)N(C2CN(C(=O)c4ccc5[nH]nnc5c4)C2)C3)c1 [compound 95, 1H-benzotriazol-5-yl-[3-[2-(3,5-dimethylanilino)-7,7-dimethyl-5H-pyrrolo[3,4-d]pyrimidin-6-yl]azetidin-1-yl]methanone] | 0.01 to 100 nM
25 | Cc1cc(C)cc(Nc2ncc3c(n2)CCN([C@@H]2CCN(C(=O)c4ccc5[nH]nnc5c4)[C@H](C)C2)C3)c1 [compound 98, 1H-benzotriazol-5-yl-[(2R,4R)-4-[2-(3,5-dimethylanilino)-7,8-dihydro-5H-pyrido[4,3-d]pyrimidin-6-yl]-2-methyl-1-piperidyl]methanone] | 100 to 500 nM
26 | COc1cc2[nH]nnc2cc1C(=O)N1CC[C@@H](N2Cc3cnc(Nc4cc(C)cc(C)c4)nc3C2)C[C@H]1C [compound 105, [(2R,4R)-4-[2-(3,5-dimethylanilino)-5,7-dihydropyrrolo[3,4-d]pyrimidin-6-yl]-2-methyl-1-piperidyl]-(6-methoxy-1H-benzotriazol-5-yl)methanone] | 0.01 to 100 nM
27 | COc1cc2[nH]nnc2cc1C(=O)N1CCC(N2Cc3cnc(Nc4cc(C)cc(C)c4)nc3C2)CC1 [compound 106, [4-[2-(3,5-dimethylanilino)-5,7-dihydropyrrolo[3,4-d]pyrimidin-6-yl]-1-piperidyl]-(6-methoxy-1H-benzotriazol-5-yl)methanone] | 0.01 to 100 nM
28 | Cc1cc(C)cc(Nc2ncc3c(n2)CN(C2CCN(C(=O)c4ccc5[nH]nnc5c4)C(C(F)(F)F)C2)C3)c1 (centres unmarked) [compound 107, 1H-benzotriazol-5-yl-[4-[2-(3,5-dimethylanilino)-5,7-dihydropyrrolo[3,4-d]pyrimidin-6-yl]-2-(trifluoromethyl)-1-piperidyl]methanone] | 0.01 to 100 nM
29 | Cc1cc(C)cc(Nc2ncc3c(n2)CCN(C2CCN(C(=O)c4ccc5[nH]nnc5c4)CC2)CC3)c1 [compound 109, 1H-benzotriazol-5-yl-[4-[2-(3,5-dimethylanilino)-5,6,8,9-tetrahydropyrimido[4,5-d]azepin-7-yl]-1-piperidyl]methanone] | 0.01 to 100 nM
